Where “and” joins values, the source holds several entries; their conditions need not be identical. Identical values can stand only once.
Assays:
[1] = system: human subjects with a history of nephrolithiasis; assay: Adverse events and discontinuations in the double-blind and open-label febuxostat study; assay type: in vivo
Protocol: (1) febuxostat 40 mg per day, (2) febuxostat 80 mg per day, (3) febuxostat 120 mg per day, or (4) placebo. Subjects completing the double-blind study entered an open-label, long-term study and began treatment with 80 mg febuxostat per day. Febuxostat doses could be titrated over the initial 6 months to 40 mg or 120 mg febuxostat per day based on the subjects' serum urate levels and the occurrence of adverse events.

[2] = system: human subjects with a history of nephrolithiasis; assay: Renal function measures and serum urate in 4-week double-blind phase 2 study and open-label long-term febuxostat study; assay type: in vivo; conditions: for Measured Creatinine Clearance / Serum Creatinine / Urine Uric Acid / Estimated GFR / Serum Urate: individual subjects
Protocol: (1) febuxostat 40 mg per day, (2) febuxostat 80 mg per day, (3) febuxostat 120 mg per day, or (4) placebo. Subjects completing the double-blind study entered an open-label, long-term study and began treatment with 80 mg febuxostat per day. Febuxostat doses could be titrated over the initial 6 months to 40 mg or 120 mg febuxostat per day based on the subjects' serum urate levels and the occurrence of adverse events. In the study subset, a post-hoc analysis of nephrolithiasis outcome in the study subjects (n=13) who had received febuxostat for ≧30 months. In the event of an occurrence of renal calculus formation, all such stones were analyzed for mineral content. The following were the criteria for inclusion in the study: (1) a history or presence of gout as defined by the American Rheumatism Association Preliminary criteria; […] (3) serum urate level of ≧8.0 mg/dL at the start of the double-blind study. The following were the criteria for exclusion from the study: […]

[3] = system: remnant kidney (RK) rats; assay: Micropuncture procedure to assess glomerular hemodynamics; assay type: in vivo, Male Wistar rats; conditions: for GFR / Kf / PGC / QA / SNGFR / MAP: end of four weeks; for MAP: under anesthesia
Protocol: Male Wistar rats (295-340 g) were used to produce rats with remnant kidney (RK) as follows. […] Rats were then assigned to one of four treatment groups: Group 1, RK control rats (n=7); Group 2, RK+febuxostat (Fx) rats (n=8); […] Oxonic acid (OA) (Sigma-Aldrich, St Louis Mo., USA), administered at 750 mg/kg body weight daily by oral gavage, was given starting the day after the 5⁄6 nephrectomy. […] All groups were treated for four weeks. Body weight (beginning just before surgery) and food and water intakes were measured daily. Systolic blood pressure, measured in conscious rats by a tail cuff sphygmomanometer, and plasma uric acid (UA) levels were measured at just before surgery (namely, at baseline) and at the end of the four weeks. Proteinuria was measured at baseline and at the end of two and four weeks. A renal micropuncture procedure along with systemic blood pressure monitoring under pentobarbital anesthesia was performed at the end of four weeks followed by morphologic evaluation of the renal preglomerular microvasculature. Animals were anesthetized with pentobarbital sodium (30 mg/kg, intraperitoneal (ip)) and placed on a thermoregulated table to maintain body temperature at 37° C. Trachea, jugular veins, femoral arteries and the left ureter were catheterized with polyethylene tubing (PE-240, PE-50, and PE-10). The left kidney was exposed, placed in a Lucite holder, sealed with agar, and covered with Ringer's solution. Mean arterial pressure (MAP) was monitored with a pressure transducer (Model p23 db; Gould, San Juan, Puerto Rico) connected to the catheter in the femoral artery and recorded on a polygraph (Grass Instruments, Quincy, Mass., USA). Blood samples were taken periodically and replaced with blood from a donor rat. Rats were maintained under euvolemic conditions by infusion of 10 mL/kg of body weight of isotonic rat plasma during surgery, followed by an infusion of 25%, polyfructosan, at 2.2 ml/h (Inutest; Fresenius Kabi, Linz, Austria). After 60 minutes, five to seven samples of proximal tubular fluid were obtained to determine flow rate and polyfructosan concentrations. Intratubular pressure under free-flow (FF) and stop-flow (SFP) conditions and peritubular capillary pressure (Pc) were measured in other proximal tubules with a servo-null device (Servo Nulling Pressure System; Instrumentation for Physiology and Medicine, San Diego, Calif., USA). Glomerular colloid osmotic pressure was estimated from protein concentrations obtained from blood of the femoral artery (Ca) and surface efferent arterioles (Ce). Polyfructosan was measured in plasma and urine samples by the anthrone-based technique described by Davidson and […] in “Simplification of the anthrone method for the determination of inulin in clearance studies,” J Lab Clin Med. 62:351-356 (1963), the contents of which are herein incorporated by reference. In brief, plasma samples were deproteinated first with trichloroacetic acid. After centrifugation, the supernatant was used for polyfructosan measurement. Polyfructosan concentrations in plasma and urine samples were assessed by the addition of anthrone reagent followed by incubation at 45° C. for 50 minutes and reading in a spectrophotometer set at wavelength of 620 nm. […] Total GFR was calculated using the following formula: GFR=(U×V)/P, where U is the polyfructosan concentration in urine, V is urine flow rate, and P is the polyfructosan concentration in plasma. The volume of fluid collected from individual proximal tubules was estimated from the length of the fluid column in a constant-bore capillary tube of known internal diameter. The concentration of tubular polyfructosan was measured by the microfluorometric method described by Vurek and Pegram in “Fluorometric method for the determination of nanogram quantities of inulin,” Anal Biochem 16:409-419 (1966), the contents of which are herein incorporated by reference. […]

[4] = number of subjects, N = 18, open-label study
[5] = double-blind Wk 4, DB dose 40 mg/day
[6] = double-blind Wk 4, DB dose 80 mg/day
[7] = double-blind Wk 4, DB dose 120 mg/day
[8] = open-label Yr 1, OL dose 80 mg/day
[9] = open-label Yr 1, OL dose 120 mg/day
[10] = open-label Yr 2, OL dose 80 mg/day
[11] = open-label Yr 2, OL dose 120 mg/day
[12] = open-label Yr 3, OL dose 80 mg/day
[13] = open-label Yr 3, OL dose 120 mg/day
[14] = RK + OA + Fx group (OA-induced hyperuricemia)
[15] = RK rats (RK + Fx or RK + OA group)

Compound: Cc1nc(-c2ccc(OCC(C)C)c(C#N)c2)sc1C(=O)O [febuxostat, 2-[3-cyano-4-(2-methylpropoxy)phenyl]-4-methylthiazole-5-carboxylic acid]
- Diarrhea (excluding infectious) [1, 4]: 7
- Edema NEC [1, 4]: 3
- Gastrointestinal and Abdominal Pains (excluding oral and throat) [1, 4]: 3
- Joint Related Signs and Symptoms [1, 4]: 6
- Lower Respiratory Tract and Lung Infections [1, 4]: 5
- Musculoskeletal and Connective Tissue Signs and Symptoms NEC [1, 4]: 5
- Non-Site Specific Injuries [1, 4]: 4
- Rashes, Eruptions and Exanthems NEC [1, 4]: 3
- Total Subjects with ≧1 AE [1, 4]: 17
- Upper Respiratory Infections [1, 4]: 12
- Urinary Tract Infections [1, 4]: 3
- Serum creatinine at Withdrawal (adverse event Increased Creatinine) ([1]; one subject, open-label, Baseline: 1.6 mg/dL): 2.1 mg/dL
- Serum creatinine at Follow-up (adverse event Increased Creatinine) ([1]; one subject, Follow-up Day 163, two weeks off study medication): 1.9 mg/dL
- Measured Creatinine Clearance [2, 5]: 82 mL/min and 56 mL/min
- Serum Creatinine [2, 5]: 1.2 mg/dL and 1.3 mg/dL
- Urine Uric Acid [2, 5]: 504 mg/day and 202 mg/day
- Measured Creatinine Clearance [2, 6]: 103 mL/min and 147 mL/min and 93 mL/min and 88 mL/min and 63 mL/min and 64 mL/min and 94 mL/min
- Serum Creatinine [2, 6]: 1.1 mg/dL (3×) and 1.2 mg/dL (3×) and 1.5 mg/dL
- Urine Uric Acid [2, 6]: 387 mg/day and 504 mg/day and 319 mg/day and 286 mg/day and 235 mg/day and 185 mg/day and 403 mg/day
- Measured Creatinine Clearance [2, 7]: 38 mL/min
- Serum Creatinine [2, 7]: 1.4 mg/dL
- Urine Uric Acid [2, 7]: 17 mg/day
- Estimated GFR [2, 8]: 80 mL/min and 73 mL/min (2×) and 67 mL/min and 68 mL/min (2×) and 57 mL/min and 61 mL/min and 54 mL/min and 33 mL/min and 49 mL/min
- Serum Creatinine [2, 8]: 1.1 mg/dL (2×) and 1.2 mg/dL (4×) and 1.4 mg/dL (2×) and 1.3 mg/dL and 1.6 mg/dL and 1.5 mg/dL
- Serum Urate [2, 8]: 4.3 mg/dL and 5.9 mg/dL and 4.4 mg/dL (2×) and 6.1 mg/dL and 4.5 mg/dL and 6.4 mg/dL and 4.1 mg/dL and 3.6 mg/dL and 7.4 mg/dL and 4.6 mg/dL
- Estimated GFR [2, 9]: 63 mL/min and 84 mL/min
- Serum Creatinine [2, 9]: 1.2 mg/dL and 1.0 mg/dL
- Serum Urate [2, 9]: 3.1 mg/dL and 4.6 mg/dL
- Estimated GFR [2, 10]: 72 mL/min and 80 mL/min and 74 mL/min and 61 mL/min and 62 mL/min and 56 mL/min and 59 mL/min and 39 mL/min and 49 mL/min and 73 mL/min and 75 mL/min
- Serum Creatinine [2, 10]: 1.2 mg/dL and 1.1 mg/dL (4×) and 1.3 mg/dL (3×) and 1.4 mg/dL (2×) and 1.5 mg/dL
- Serum Urate [2, 10]: 4.1 mg/dL and 4.2 mg/dL and 4.8 mg/dL and 7.6 mg/dL and 6.4 mg/dL and 9.7 mg/dL and 5.4 mg/dL and 4.7 mg/dL and 6.0 mg/dL and 4.4 mg/dL and 5.7 mg/dL
- Estimated GFR [2, 11]: 58 mL/min and 75 mL/min
- Serum Creatinine [2, 11]: 1.3 mg/dL and 1.1 mg/dL
- Serum Urate [2, 11]: 3.0 mg/dL and 4.2 mg/dL
- Estimated GFR [2, 12]: 72 mL/min (2×) and 66 mL/min and 61 mL/min and 57 mL/min and 51 mL/min and 54 mL/min and 39 mL/min and 40 mL/min and 65 mL/min and 67 mL/min
- Serum Creatinine [2, 12]: 1.2 mg/dL (5×) and 1.3 mg/dL and 1.4 mg/dL (3×) and 1.5 mg/dL and 1.8 mg/dL
- Serum Urate [2, 12]: 5.8 mg/dL (2×) and 3.2 mg/dL and 3.9 mg/dL and 3.3 mg/dL and 7.5 mg/dL and 4.6 mg/dL and 3.8 mg/dL (2×) and 6.8 mg/dL and 5.2 mg/dL
- Estimated GFR [2, 13]: 57 mL/min and 52 mL/min
- Serum Creatinine [2, 13]: 1.3 mg/dL and 1.5 mg/dL
- Serum Urate [2, 13]: 3.3 mg/dL and 3.8 mg/dL
- Renal function throughout the study ([2]; subjects receiving febuxostat): maintained at generally stable levels
- GFR [3, 14]: 0.44 ± 0.05 mL/min
- Kf [3, 14]: 0.037 ± 0.004 nL/s · mmHg
- PGC [3, 14]: 52.0 ± 1.2 mmHg
- QA [3, 14]: 151 ± 19 nL/min
- SNGFR [3, 14]: 42.2 ± 4.9 nL/min
- MAP [3, 14]: 172 ± 8 mmHg
- GFR [3, 15]: 0.51 ± 0.04 mL/min
- Kf [3, 15]: 0.035 ± 0.005 nL/s · mmHg
- PGC [3, 15]: 52.2 ± 1.9 mmHg
- QA [3, 15]: 142 ± 11 nL/min
- SNGFR [3, 15]: 36.7 ± 3.1 nL/min
- MAP [3, 15]: 189 ± 8 mmHg
- GFR (in words) ([3]; RK+Fx and RK+OA+Fx rats vs the two untreated groups): increase GFR compared to the two untreated groups
- Single-nephron hyperfiltration (in words) ([3]; RK+Fx and RK+OA+Fx rats, normal glomerular pressure and plasma flow maintained): prevented single-nephron hyperfiltration
- Afferent arteriolar resistances (in words) ([3]; RK+OA+Fx rats vs untreated cohorts): higher afferent arteriolar resistances compared to their respective untreated cohorts

Source: US20130143886A1, “METHODS FOR PRESERVING AND/OR INCREASING RENAL FUNCTION USING XANTHINE OXIDOREDUCTASE INHIBITORS” (priority 2006, published 2013)
